In patent publication US9199885B2, “Utilization of iron salts to stabilize and/or disinfect biosolids” (The Administrators of the Tulane Educational Fund, priority 2013, dated 2015):

Legend:
[1] = system: return activated sludge (RAS) seed microorganisms; assay: Aerobic respirometry: specific oxygen uptake rate (SOUR) of iron-dosed, heat-dried biosolids; details: for time until SOUR reached below the stable criteria requirement: 1.5% ferrate as iron by TS
Protocol: Thickened sewage sludge was poured into ster[…] & Bird B-Ker polycarbonate jars with a sampling port for flash mixing and flocculation in amounts of 1 L to 2 L. The ferric chloride/ferrate dose was delivered by syringe to the jar test beakers. The ferric chloride dose was calculated by obtaining the total solids content of the sludge sample first and taking 2% of the result. The ferrate dose was calculated after computing the final synthesized concentration of ferrate in buffer solution. Both the ferrate and ferric chloride doses were based on mass rather than volume. The ferrate solution strength was calculated based on mass instead of volume to minimize errors in the dose calculations; these errors are associated with off-gases from the ferrate solution changing the volume of ferrate within the syringe. Of the six jars, one jar of raw sludge served as the control and five jars were used to test various dosages. The ferric chloride was added first while the sludge samples were mixed at a speed of 300 rpm; after thorough mixing (about 10 minutes), the ferrate was added and the mixture was mixed at 300 rpm for about 10 minutes until thoroughly mixed. Well-mixed sludge was then transferred into centrifuge tubes and centrifuged, and then the settled solids were collected and spread on a baking pan and heat dried for about 30 minutes. Batch respirometer tests were conducted by dosing microbial culture with an amount of organic chemical or wastewater followed by monitoring the reactions through measurement of oxygen uptake in aerobic tests or gas production in anoxic and methanogenic tests. Batch tests are transient, non-steady-state reactions in which both substrate and biomass concentrations change throughout the biodegradation reaction. The procedures generally involve the following steps. A sample of wastewater or solution of test chemicals is placed in each of a number of respirometer vessels. Nutrients and trace minerals are added in amounts sufficient to support biological growth and a buffer is added to maintain the pH within an acceptable range. A seed culture is added to provide microorganisms that can degrade the organic constituents in the test samples. A caustic scrubber is suspended within the headspace of the reaction vessel to absorb carbon dioxide (only in instruments using headspace oxygen transfer), and chemicals are added to inhibit nitrification in cases where only aerobic carbonaceous oxidation reactions are to be monitored. The reaction vessels are attached to a device suitable for measuring oxygen uptake or gas production, and oxygen uptake or gas production is measured over time periods ranging from a few minutes to 90 days, depending on the test objectives. The aerobic conditions of respirometry assessments were designed to simulate the scenario that the treated biosolids were fully seeded with an unlimited oxygen supply. The anaerobic conditions mimicked fully seeded biosolids without oxygen. The return activated sludge from the New Orleans' POTW was used as seed for its already acclimated microorganisms. For the same reasons, the effluent was selected as the dilution water to increased moisture content. After the heat drying process, the product was tested for total solids contents. […] The system was then sealed and set up in a 20° C. water bath for real time monitoring on oxygen uptake for 96 hours. pH and ORP values were assessed at the beginning and the end of the tests. The sludge was thickened to achieve a 5% solids content level. After the addition of ferric chloride, ferrate or both followed by centrifugation, the sludge cake was placed in an oven at 80° C. for 30 minutes to mimic the heat drying process. The dried sludge was then tested for stability by adding 98%-99% of moisture content. There were three exogenous variables: buffer, feed and seed. The buffer was 1.5M KH2PO4 at pH 7.0. […]

[2] = ORP of treated heat-dried biosolids; format: physicochemical; details: post treatment
Protocol: After the heat drying process, the product was tested for total solids contents. Based on the results, a 2% solution of said product in effluent was made and poured into 600 mL narrow neck glass bottles, along with a seeding of 3000 mg/L for each bottle. The system was then sealed and set up in a 20° C. water bath for real time monitoring on oxygen uptake for 96 hours. pH and ORP values were assessed at the beginning and the end of the tests.

biomass = details: endogenous respiration, no added oxygen or substrate; cited from earlier work

Row | SMILES | stability of heat-dried biosolids ([1]; 1.4% to 1.5% ferric chloride, seeded) | SOUR ([1]; 1.4% to 1.5% ferric chloride, seeded, for 5 to 10 hours) | time heat-dried biosolids observed to be stable ([1]; dose larger than 2.3% ferric chloride, seeded) | stability of heat-dried biosolids ([1]; ferric chloride-treated, seed not added) | stability of heat-dried biosolids ([1]; with addition of seed, ferric chloride doses less than 2.3%) | ORP levels in the biosolids [2] | stimulation of biomass during dosing (biomass) | stabilization (SOUR) ([1]; 1.3% ferrate as the iron dose, buffer, seed and feed in respirometer) | time until SOUR reached below the stable criteria requirement ([1]; moisture content 98%) | time until SOUR reached below the stable criteria requirement ([1]; moisture content 99%) | stabilization (SOUR) ([1]; ferrate dosages 1.2% to 4.9%, not neutralized with buffer (pH higher than 10), acetate and seed added)
1 | [Cl][Fe]([Cl])[Cl] [ferric chloride] | not stable | > 1.5 mg O2/h/g TS | at least 2 days | stable | not stable | around 0.1 V | did not stimulate the biomass | – | – | – | –
2 | O=S(=O)([O-])[O-].[Fe+2] [ferrous sulphate] | – | – | – | – | – | – | did not stimulate the biomass | – | – | – | –
3 | [O]=[Fe](=[O])([O-])[O-] [ferrate] | – | – | – | – | – | around 0.1 V | – | no stabilization | 5 h | 9 h | stable biosolids
